In patent US20080261911A1, “Uses of diphenyl/diphenylamine carboxylic acids” (priority 2006, published 2008):
“Also recorded” adds a separate entry of the source.

Assays:
[1] = tested on: Sp1, Sp3, and Sp4 proteins; assay: Western blot of Sp1, Sp3 and Sp4 protein expression in Panc-1 cells; format: cell-based; settings: for Sp1, Sp3, and Sp4 protein expression: Western blot, vs DMSO
[2] = tested on: VEGF; assay: Immunostaining of VEGF in Panc-1 cells; format: cell-based; settings: 50 μM, 48 hr
Experimental: Panc1 cells are seeded in LAB-TEK® chamber slides (Nalge Nunc International, Naperville, Ill.) at 100,000 cells/well in DME/F12 medium supplemented with 5% fetal bovine serum. Cells are treated with the selected non-steroidal anti-inflammatory drugs and after 48 hr, the media chamber is detached and the remaining glass slides washed in Dulbecco's phosphate buffered saline (PBS). The immunostaining for vascular endothelial growth factor (VEGF) is determined essentially as previously described (Abdelrahim et al, 2005). Briefly, the glass slides are fixed with cold (-20° C.) methanol for 10 min and washed in 0.3% PBS/Tween for 5 min (two times) before blocking with 5% goat serum in antibody dilution buffer (stock solution: 100 ml of PBS/Tween, Ig of bovine serum albumin, 45 ml of glycerol, pH 8.0) for 1 hr at 20° C. After removal of the blocking solution, VEGF rabbit polyclonal antibody (A-20) is added in antibody dilution buffer (1:200) and incubated for 12 hr at 4° C. Slides are washed for 10 min with 0.3% Tween in 0.02 M phosphate buffered saline (three times) and incubated with fluorescein isothiocyanate-conjugated (FITC) goat anti-rabbit antibodies (1:1000 dilution) for 2 hr at 20° C. Slides are then washed for 10 min in 0.3% PBS-Tween (four times). […]

[3] = tested on: VEGFR1; assay: VEGFR1 protein expression in Panc-1 cells (Western blot, immunostaining); format: cell-based; settings: 50 μM, 48 h
Experimental: FIGS. 14A-14D show tolfenamic acid decreases expression of Sp and VEGFR1 proteins in pancreatic cancer cells. Tolfenamic acid effects on Panc-1 cells (FIG. 14A and FIG. 14B), and L3.6pl cells (FIG. 14C and FIG. 14D). Cells were treated with DMSO, 50 μM tolfenamic acid, or 50 μM ampiroxicam for 48 h, and whole cell lysates were analyzed by Western blot analysis. […] FIGS. 16A-16D show the interaction of Sp proteins with VEGFR1 promoter sequences. […] The specific Sp protein bands and antibody supershifted complexes are indicated with arrows. Effects of tolfenamic acid on VEGFR1 and Egr-1 protein expression in Panc-1 cells (FIG. 16C), and L3.6pl cells (FIG. 16D). […] Cells are washed once with phosphate buffered saline PBS and collected by scraping in 200 μL of lysis buffer [50 mM HEPES, 0.5M sodium chloride, 1.5 mM magnesium chloride, 1 mM EGTA, 10% (v/v) glycerol, 1% Triton X-100, 5 μL/ml of Protease Inhibitor Cocktail (Sigma)]. The lysates from the cells are incubated on ice for 1 hr with intermittent vortexing followed by centrifugation at 40,000 g for 10 min at 4° C. […] Samples are electrophoresed, transferred to membranes, and proteins detected by incubation with polyclonal primary antibodies Sp1, Sp3, Sp4, HDAC, VEGF (a-20), c-Met, surviving, VEGF, cleaved PARP, and β-tubulin (H-235) followed by blotting with appropriate horseradish peroxidase-conjugated secondary antibody as previously described (Abdelrahim et al, 2004). After autoradiography, band intensities are determined by a scanning laser densitometer (Sharp Electronics Corporation, Mahwah, N.J.) using ZERO-D […] software (Scanalytics Corporation, Billerica, Mass.).

[4] = tested on: VEGFR1; assay: VEGFR1 protein expression in L3.6pl cells (Western blot); format: cell-based, human; settings: 50 μM, 48 h
Experimental: FIGS. 14A-14D show tolfenamic acid decreases expression of Sp and VEGFR1 proteins in pancreatic cancer cells. Tolfenamic acid effects on Panc-1 cells (FIG. 14A and FIG. 14B), and L3.6pl cells (FIG. 14C and FIG. 14D). Cells were treated with DMSO, 50 μM tolfenamic acid, or 50 μM ampiroxicam for 48 h, and whole cell lysates were analyzed by Western blot analysis. […] FIGS. 16A-16D show the interaction of Sp proteins with VEGFR1 promoter sequences. […] The specific Sp protein bands and antibody supershifted complexes are indicated with arrows. Effects of tolfenamic acid on VEGFR1 and Egr-1 protein expression in Panc-1 cells (FIG. 16C), and L3.6pl cells (FIG. 16D). […] Samples are electrophoresed, transferred to membranes, and proteins detected by incubation with polyclonal primary antibodies Sp1, Sp3, Sp4, HDAC, VEGF (a-20), c-Met, surviving, VEGF, cleaved PARP, and β-tubulin (H-235) followed by blotting with appropriate horseradish peroxidase-conjugated secondary antibody as previously described (Abdelrahim et al, 2004). After autoradiography, band intensities are determined by a scanning laser densitometer (Sharp Electronics Corporation, Mahwah, N.J.) using ZERO-D […] software (Scanalytics Corporation, Billerica, Mass.).

[5] = tested on: VEGF-B/VEGFR1 signaling (MAPK1/2 phosphorylation); assay: VEGF-B activation of MAPK in L3.6pl cells; format: cell-based, human; settings: 50 μM pretreatment for 36 hr, VEGF-B 5 or 10 min
Experimental: Cells were pretreated with DMSO, 50 μM ampiroxicam, or 50 μM tolfenamic acid for 36 hr; VEGF-B (50 ng/ml) was added for 5 or 10 min, and whole cell lysates were obtained and analyzed by Western blot.

[6] = tested on: Panc-1 cells; assay: Cell proliferation assay, Panc-1 cells; format: cell-based; settings: for growth of Panc-1 pancreatic cancer cells: different concentrations, 6 days, cell counting
Experimental: FIGS. 6A-6E show comparative effects of non-steroidal anti-inflammatory drugs on Panc-1 cell proliferation and Sp protein expression. Effects of tolfenamic acid (FIG. 6A), ampiroxicam (FIG. 6B), naproxen (FIG. 6C), and diclofenac sodium (FIG. 6D) on Panc-1 cell proliferation. Panc-1 cells were treated with different concentrations of non-steroidal anti-inflammatory drugs for 6 days, and the number of cells were determined on days 2, 4, and 6 by cell counting techniques. […] Panc-1 cells were treated with DMSO, 150 μM ampiroxicam, 150 μM naproxen, and 50 μM tolfenamic acid for 48 hr, and levels of Sp proteins and the cleaved poly (ADP-ribose) polymerase (PARP) protein were determined in whole cell lysates by Western blot analysis. […] Panc1, Panc28 and L3.6pl cells are seeded in DMEM/F12 media with 5% FBS and treated the next day with either vehicle (DMSO) or with the indicated compounds' concentrations. Cells are counted at the indicated times using a Z1™ COULTER COUNTER® cell counter. Each experiment is carried out in triplicate and results expressed as means ±SD for each determination.

[7] = tested on: cleaved poly (ADP-ribose) polymerase (PARP) protein; assay: Apoptosis: cleaved PARP in Panc-1 cells, Western blot; format: cell-based; settings: 48 hr
Experimental: Cells are washed once with phosphate buffered saline PBS and collected by scraping in 200 μL of lysis buffer [50 mM HEPES, 0.5M sodium chloride, 1.5 mM magnesium chloride, 1 mM EGTA, 10% (v/v) glycerol, 1% Triton X-100, 5 μL/ml of Protease Inhibitor Cocktail (Sigma)]. The lysates from the cells are incubated on ice for 1 hr with intermittent vortexing followed by centrifugation at 40,000 g for 10 min at 4° C. Equal amounts of protein (60 μg) from each treatment group are diluted with loading buffer, boiled and loaded onto 10 and 12.5% SDS-polyacrylamide gel. […] Samples are electrophoresed, transferred to membranes, and proteins detected by incubation with polyclonal primary antibodies Sp1, Sp3, Sp4, HDAC, VEGF (a-20), c-Met, surviving, VEGF, cleaved PARP, and β-tubulin (H-235) followed by blotting with appropriate horseradish peroxidase-conjugated secondary antibody as previously described (Abdelrahim et al, 2004). After autoradiography, band intensities are determined by a scanning laser densitometer (Sharp Electronics Corporation, Mahwah, N.J.) using ZERO-D SCANALYTICS software (Scanalytics Corporation, Billerica, Mass.).

[8] = tested on: Egr-1 protein; assay: Egr-1 protein expression in L3.6pl cells, Western blot; format: cell-based, human; settings: 50 μM, 48 h
Experimental: Cells are washed once with phosphate buffered saline PBS and collected by scraping in 200 μL of lysis buffer [50 mM HEPES, 0.5M sodium chloride, 1.5 mM magnesium chloride, 1 mM EGTA, 10% (v/v) glycerol, 1% Triton X-100, 5 μL/ml of Protease Inhibitor Cocktail (Sigma)]. The lysates from the cells are incubated on ice for 1 hr with intermittent vortexing followed by centrifugation at 40,000 g for 10 min at 4° C. Equal amounts of protein (60 μg) from each treatment group are diluted with loading buffer, boiled and loaded onto 10 and 12.5% SDS-polyacrylamide gel. For vascular endothelial growth factor immunoblots, 100 μg of protein are used. Samples are electrophoresed, transferred to membranes, and proteins detected by incubation with polyclonal primary antibodies Sp1, Sp3, Sp4, HDAC, VEGF (a-20), c-Met, surviving, VEGF, cleaved PARP, and β-tubulin (H-235) followed by blotting with appropriate horseradish peroxidase-conjugated secondary antibody as previously described (Abdelrahim et al, 2004). After autoradiography, band intensities are determined by a scanning laser densitometer (Sharp Electronics Corporation, Mahwah, N.J.) using ZERO-D SCANALYTICS software (Scanalytics Corporation, Billerica, Mass.).
The proximal region of the VEGFR1 promoter contains GC-rich and Egr-1 sites. […]

CCOC(=O)OC(C)OC1=C(C(=O)Nc2ccccn2)N(C)S(=O)(=O)c2ccccc21 (stereo not shown) [ampiroxicam]
Sp1, Sp3, and Sp4 protein expression ([1]; 50 μM, 48 hr): had no effect; also recorded: did not affect Sp protein levels | Sp protein degradation ([1]; 150 μM, 48 hr (concentration of comparable growth inhibition)): only tolfenamic acid induced protein degradation | immunostaining of secreted vascular endothelial growth factor protein [2]: significant lawn of extracellular vascular endothelial growth factor staining | VEGFR1 immunostaining [3]: VEGFR1 immunostaining was observed | VEGFR1 protein levels, Western blot [3]: only the latter compound decreased VEGFR1 protein levels | VEGFR1 protein levels, Western blot [4]: only the latter compound decreased VEGFR1 protein levels | VEGF-B-induced phosphorylation of MAPK1/2 [5]: increased phosphorylation of MAPK1/2 | growth of Panc-1 pancreatic cancer cells [6]: decreased growth of Panc-1 pancreatic cancer cells | poly (ADP-ribose) polymerase cleavage ([7]; 150 μM): only tolfenamic acid induced protein degradation and poly (ADP-ribose) polymerase cleavage | Egr-1 protein [8]: unchanged in all treatment groups

Cc1c(Cl)cccc1Nc1ccccc1C(=O)O [tolfenamic acid]
decrease in levels of Sp1, Sp3, and Sp4 proteins ([1]; 50 μM, 48 hr): greater than 80% | order of potency for decreased expression of Sp1, Sp3, and Sp4 proteins ([1]; 50 μM, 48 hr): tolfenamic acid>diclofenac˜diflunisal | Sp1, Sp3, and Sp4 protein expression ([1]; 50 μM, 48 hr): decreased expression of Sp1, Sp3, and Sp4 proteins; also recorded: induced protein degradation | immunostaining of secreted vascular endothelial growth factor protein [2]: almost non-detectable | VEGFR1 immunostaining [3]: decreased VEGFR1 staining | VEGFR1 protein levels, Western blot [3]: decreased VEGFR1 protein levels | VEGFR1 protein levels, Western blot [4]: decreased VEGFR1 protein levels | VEGF-B-induced phosphorylation of MAPK1/2 [5]: decreased phospho-MARK1/2 | relative potency in Panc-1 growth inhibition ([6]; compared with ampiroxicam and naproxen): exhibited higher potencies | growth of Panc-1 pancreatic cancer cells [6]: decreased growth of Panc-1 pancreatic cancer cells | poly (ADP-ribose) polymerase cleavage ([7]; 50 μM): induced protein degradation and poly (ADP-ribose) polymerase cleavage | Egr-1 protein [8]: unchanged in all treatment groups
